Marks after values point to notes of the source that are not given here.
Tests used:
Type in all cases: in vivo
[1] = test system: CCI-induced neuropathic pain; assay: CCI model in mice, IP route; conditions: CCl model
Description: IP route of administration was used for initial proof of principle studies with Formula 1. However, the chosen route of administration in most of the studies conducted with Formula 1 was either SC or PO. A brief protocol outline is provided in each section, for the purpose of understanding the results without elaborating on all the detailed procedures.
Table 7 summarizes the activity of Formula 1 in mice models of neuropathic pain following repeated daily administration using different routes of administration. […] Treatment with Formula 1 show activity without CNS effect.

[2] = test system: Taxol-induced neuropathic pain; assay: Taxol-induced neuropathic pain in mice, SC administration
Protocol: (§1) Study outline in brief: Animals were dosed daily with Taxol for a period of 8 consecutive days (Day 0 to Day 7). On study day 8, prior to drug dosing, the decrease in withdrawal force (tactile allodynia) was verified by applying the von Frey test. After assigning the animals to their treatment groups, the animals were treated daily for a period of 5 days with either vehicle or Formula 1 at different doses. Gabapentin at a dose of 150 mg/kg was dosed only on days of testing (day 8 and day 14).
Response to heat stimuli was assessed using the hotplate apparatus set at 50ΥC. […] At baseline prior to Taxol dosing, the animals' response time to heat was 28.10±1.60 sec (vehicle-treated group). […] However, it is interesting to note that the beneficial activity of Formula 1 on heat hyperalgesia was more noticeable on study day 14, following repeated daily dosing of the compound, than on study day 8 following a single dose (Table 6).

[3] = test system: Taxol-induced neuropathic pain; assay: Taxol-induced neuropathic pain in mice, oral route
Protocol: as §1
The activity of Formula 1 following oral administration was assessed using the Taxol model (see Study Outline in section 7.1). […] Gabapentin dosed at 150 mg/kg was active for a period of 4 h post-dosing.

[4] = test system: CCI-induced neuropathic pain; assay: Chronic constriction injury (CCI) model in mice, SC route; conditions: for Dose of maximum activity / Duration of activity at maximum effect / Level of activity (% of maximum effect-baseline) / Peak of activity (T): CCl model, SC, mice
Protocol: Study outline in brief: The sciatic nerve of mice was exposed under anesthesia, and 3 loose ligations were placed around the nerve. Animals were allowed to recover for 3 days. Tactile allodynia (von Frey testing) and thermal (hot at 50±1° C. and cold at 2±1° C.) hyperalgesia were then assessed. Animals that experienced tactile allodynia were assigned to their treatment groups (vehicle, gabapentin and Formula 1 at different doses). Animals were subsequently treated daily for a period of 5 days with either vehicle or Formula 1 at different doses. Gabapentin at a dose of 150 mg/kg was dosed only on days of testing (day 3 and day 7).

With `NCC1(CC(=O)O)CCCCC1` [Gabapentin, gabapentin, reference compound] the “Dose of maximum activity” value [1] was 150 mg/kg, the “Duration of activity at maximum effect” value [1] was 4-6 H and the “Peak of activity (T)” value [1] was 2-3 H. The “Level of activity (% of maximum effect-baseline)” value ([1]; repeated daily administration) was 66%, the “response time to heat (50° C.), Mean” value ([2]; 150 mg/kg, Day 0 Pre-Taxol) was 28.5 s and the “response time to heat (50° C.), Mean” value ([2]; 150 mg/kg, Day 8, 1 h) was 18.9* sec. The “response time to heat (50° C.), Mean” value ([2]; 150 mg/kg, Day 8, 2 h) was 22.5* sec, the “response time to heat (50° C.), Mean” value ([2]; 150 mg/kg, Day 8, 4 h) was 16.7 s and the “response time to heat (50° C.), Mean” value ([2]; 150 mg/kg, Day 8, 6 h) was 13.8 s. The “response time to heat (50° C.), Mean” value ([2]; 150 mg/kg, Day 8 Pre-dosing) was 11.1 s, the “response time to heat (50° C.), Mean” value ([2]; 150 mg/kg, Day 14, 1 h) was 25.1* sec and the “response time to heat (50° C.), Mean” value ([2]; 150 mg/kg, Day 14, 2 h) was 25.0 s. The “response time to heat (50° C.), Mean” value ([2]; 150 mg/kg, Day 14, 4 h) was 25.1* sec, the “response time to heat (50° C.), Mean” value ([2]; 150 mg/kg, Day 14, 6 h) was 18.7* sec and the “response time to heat (50° C.), Mean” value ([2]; 150 mg/kg, Day 14 Pre-dosing) was 11.2 s. For the same molecule, the “response time to heat (50° C.), Mean” value ([2]; 150 mg/kg, Day 17, No dosing) was 11.5 s, the “period of increase in withdrawal force (von Frey)” value ([2]; Taxol mice, 150 mg/kg) was 4 h and the “Dose of maximum activity” value ([2]; Taxol model, SC, mice) was 150 mg/kg. The “Duration of activity at maximum effect” value ([2]; Taxol model, SC, mice) was 4 H, the “Level of activity (% of maximum effect-baseline)” value ([2]; Taxol model, SC, mice) was 100% and the “Peak of activity (T)” value ([2]; Taxol model, SC, mice) was 2-4 H. The “period of activity post-dosing” value ([3]; Taxol mice, 150 mg/kg) was 4 h, the “Dose of maximum activity” value ([3]; Taxol model, PO, mice) was 150 mg/kg and the “Duration of activity at maximum effect” value ([3]; Taxol model, PO, mice) was 4 H. The “Level of activity (% of maximum effect-baseline)” value ([3]; Taxol model, PO, mice) was 100%, the “Peak of activity (T)” value ([3]; Taxol model, PO, mice) was 2-4 H and the “response time to cold plate” value ([4]; CCI mice, 150 mg/kg) was “increased the response time of the animals to values that were higher than the baseline value”. The “withdrawal force (von Frey)” value ([4]; CCI mice, 150 mg/kg) was “significant, but not complete, reversal”, the “Dose of maximum activity” value ([4]; first SC line) was 150 mg/kg and the “Duration of activity at maximum effect” value ([4]; first SC line) was 4-6 H. For the same molecule, the “Level of activity (% of maximum effect-baseline)” value ([4]; first SC line) was 64%, the “Peak of activity (T)” value ([4]; first SC line) was 2-3 H and the “Level of activity (% of maximum effect-baseline)” value ([4]; second SC line (readout not given)) was over 100%. The “Dose of maximum activity” value ([4]; second SC line) was 150 mg/kg, the “Duration of activity at maximum effect” value ([4]; second SC line) was 4-6 H and the “Peak of activity (T)” value ([4]; second SC line) was 2-3 H.
